Laboratory results taken from patent US7932270B2 (Cytokinetics, Inc., priority 2006, dated 2011).

Molecular target: T1, chicken gizzard smooth muscle myosin subfragment-1 chemically crosslinked to cardiac or skeletal actin (Gallus gallus, UniProt P10587)
T1 construct: chicken gizzard smooth muscle myosin subfragment-1; from tissue; host or cells: chicken gizzard
Test: Smooth muscle myosin ATPase dose response assay (pyruvate kinase/horseradish peroxidase/pyruvate oxidase-coupled, amplex red fluorescence)
Type: biochemical
Settings: read-out: IC50 Arithmetic Mean
Outline: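 ATPase monitored by amplex red fluorescence (ex 480/em 615 nm) via pyruvate oxidase/HRP coupling, pH 7.00, ATP 0.15 mM. Enzyme: smooth muscle S1-actin crosslinked conjugate, amount set empirically by titration. Dose-response fitted with 4-parameter Hill equation for IC50.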

T1 sequence (P02607 2-151): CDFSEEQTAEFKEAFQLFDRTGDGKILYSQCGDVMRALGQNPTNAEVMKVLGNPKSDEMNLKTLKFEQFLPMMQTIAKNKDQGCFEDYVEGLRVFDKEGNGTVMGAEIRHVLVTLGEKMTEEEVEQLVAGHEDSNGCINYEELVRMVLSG
T1 sequence (P10587 84-789): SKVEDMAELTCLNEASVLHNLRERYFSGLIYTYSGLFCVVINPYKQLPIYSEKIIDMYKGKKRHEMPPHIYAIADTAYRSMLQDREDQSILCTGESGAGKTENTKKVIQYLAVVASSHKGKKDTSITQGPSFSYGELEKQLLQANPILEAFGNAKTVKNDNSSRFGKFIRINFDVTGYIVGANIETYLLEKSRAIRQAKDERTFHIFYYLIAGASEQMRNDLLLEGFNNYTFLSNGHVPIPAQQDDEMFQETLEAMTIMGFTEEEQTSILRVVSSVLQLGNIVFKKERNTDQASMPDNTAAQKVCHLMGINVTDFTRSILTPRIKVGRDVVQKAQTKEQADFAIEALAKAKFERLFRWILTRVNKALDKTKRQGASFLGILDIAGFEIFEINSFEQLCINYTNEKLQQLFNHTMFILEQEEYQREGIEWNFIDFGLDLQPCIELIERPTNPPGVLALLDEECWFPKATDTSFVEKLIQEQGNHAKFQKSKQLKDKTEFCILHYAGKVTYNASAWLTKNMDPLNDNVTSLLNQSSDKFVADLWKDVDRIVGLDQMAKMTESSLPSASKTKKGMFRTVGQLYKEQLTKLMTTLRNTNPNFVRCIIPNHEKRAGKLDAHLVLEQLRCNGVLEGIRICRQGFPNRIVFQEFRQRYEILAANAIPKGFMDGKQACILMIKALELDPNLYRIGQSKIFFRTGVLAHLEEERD

Row | SMILES | IC50
1 | N#Cc1ccccc1-c1ccc(C(=O)NCc2cccnc2)c(NCCc2cccc(F)c2F)n1 [(2-{[2-(2,3-difluorophenyl)ethyl]amino}-6-(2-cyanophenyl)(3-pyridyl))-N-(3-pyridylmethyl)carboxamide] | 22 nM
2 | N#Cc1ccccc1-c1ccc(C(=O)NCc2ccc(C(F)(F)F)cn2)c(NCCc2cccc(F)c2)n1 [(6-(2-cyanophenyl)-2-{[2-(3-fluorophenyl)ethyl]amino}(3-pyridyl))-N-{[5-(trifluoromethyl)(2-pyridyl)]methyl}carboxamide] | 1500 nM
3 | CN(CCNC(=O)c1ccc(-c2ccccc2C#N)nc1NCCc1cccc(F)c1)C(=O)CCCN [4-amino-N-{2-[(6-(2-cyanophenyl)-2-{[2-(3-fluorophenyl)ethyl]amino}(3-pyridyl))carbonylamino]ethyl}-N-methylbutanamide] | 1200 nM
4 | C[C@H](CNC(=O)c1cc(F)c(-c2cnn(C)c2)nc1NCCc1cccc(F)c1)NC(=O)CCCNC(=O)OC(C)(C)C | 100 nM
5 | Cn1cc(-c2ccc(C(=O)NC[C@H]3CCCN3C(=O)CCNC(=O)OC(C)(C)C)c(NCCc3cccc(F)c3)n2)cn1 [N-[((2R)-1-{3-[(tert-butoxy)carbonylamino]propanoyl}pyrrolidin-2-yl)methyl](2-{[2-(3-fluorophenyl)ethyl]amino}-6-(1-methylpyrazol-4-yl)(3-pyridyl))carboxamide] | 5030 nM
6 | O=C(NCc1cccnc1)c1ccc(-c2ccccc2)nc1NCCc1ccc(Cl)cc1 [(2-{[2-(4-chlorophenyl)ethyl]amino}-6-phenyl(3-pyridyl))-N-(3-pyridylmethyl)carboxamide] | 6680 nM
7 | CN[C@@H](C)CNC(=O)c1ccc(-c2ccccc2C#N)nc1NCCc1cccc(F)c1 [N-[(2S)-2-(methylamino)propyl](6-(2-cyanophenyl)-2-{[2-(3-fluorophenyl)ethyl]amino}(3-pyridyl))carboxamide] | 944 nM
8 | Cn1cc(-c2nc(NCCc3cccc(F)c3)c(C(=O)NCc3cc[nH]n3)cc2F)cn1 [(5-fluoro-2-{[2-(3-fluorophenyl)ethyl]amino}-6-(1-methylpyrazol-4-yl)(3-pyridyl))-N-(pyrazol-3-ylmethyl)carboxamide] | 20 nM
9 | N#Cc1ccccc1-c1ccc(C(=O)NCc2ccc(N3CCOCC3)nc2)c(NCCc2cccc(F)c2)n1 [(6-(2-cyanophenyl)-2-{[2-(3-fluorophenyl)ethyl]amino}(3-pyridyl))-N-[(6-morpholin-4-yl(3-pyridyl))methyl]carboxamide] | 16900 nM
10 | N#Cc1ccccc1-c1ccc(C(=O)NCCO)c(NCCc2cccc(F)c2)n1 [(6-(2-cyanophenyl)-2-{[2-(3-fluorophenyl)ethyl]amino}(3-pyridyl))-N-(2-hydroxyethyl)carboxamide] | 1080 nM

Continued, values first:

Row | IC50 | SMILES
11 | 1790 nM | N#Cc1ccccc1-c1ccc(C(=O)NCc2ccc(Cl)nc2)c(NCCc2cccc(F)c2)n1 [N-[(6-chloro(3-pyridyl))methyl](6-(2-cyanophenyl)-2-{[2-(3-fluorophenyl)ethyl]amino}(3-pyridyl))carboxamide]
12 | 51 nM | N#Cc1ccccc1-c1ccc(C(=O)NC[C@H]2CCN2C(=O)C(O)CO)c(NCCc2cccc(F)c2)n1 (stereo partly drawn) [N-{[(2R)-1-(2,3-dihydroxypropanoyl)azetidin-2-yl]methyl}(6-(2-cyanophenyl)-2-{[2-(3-fluorophenyl)ethyl]amino}(3-pyridyl))carboxamide]
13 | 915 nM | O=C(NCc1cccnc1)c1ccc(-c2cccc(F)c2)nc1NCCc1ccccn1 [{6-(3-fluorophenyl)-2-[(2-(2-pyridyl)ethyl)amino](3-pyridyl)}-N-(3-pyridylmethyl)carboxamide]
14 | 2130 nM | COC(=O)N1CCC(CNC(=O)c2ccc(-c3ccccc3C#N)nc2NCCc2cccc(F)c2)CC1 [methyl 4-{[(6-(2-cyanophenyl)-2-{[2-(3-fluorophenyl)ethyl]amino}-3-pyridyl)carbonylamino]methyl}piperidinecarboxylate]
